Columns and labels:
recombinant TASK-1 = recombinant TASK-1 (Homo sapiens (Human), UniProt O14649); assay: Inhibition of recombinant TASK-1 in stably transfected CHO cells (KCl-induced depolarization, voltage-sensitive dye, FLIPR); format: cell-based; details: depolarization induced by 40 mM potassium chloride, some mean values from multiple determinations
Method: (§1) The compounds of the invention were tested here with administration of 40 mM of potassium chloride in the presence of a voltage-sensitive dye using the method described in detail in the following references [Whiteaker et al., Validation of FLIPR membrane potential dye for high-throughput screening of potassium channel modulators, J. Biomol. Screen. 6 (5), 305-312 (2001); Molecular Devices FLIPR Application Note: Measuring membrane potential using the FLIPR® membrane potential assay kit on Fluorometric Imaging Plate Reader (FLIPR®) systems, http://www.moleculardevices.com/reagents-supplies/assay-kits/ion-channels/flipr-membrane-potential-assay-kits]. The activity of the test substances was determined as their ability to inhibit a depolarization induced in the recombinant cells by 40 mM potassium chloride. The concentration which can block half of this depolarization is referred to as IC50.

recombinant TASK-3 = recombinant TASK-3 (Homo sapiens (Human), UniProt Q9NPC2); assay: Inhibition of recombinant TASK-3 in stably transfected CHO cells (KCl-induced depolarization, voltage-sensitive dye, FLIPR); format: cell-based; details: depolarization induced by 40 mM potassium chloride, some mean values from multiple determinations
Chain of recombinant TASK-3 (Q9NPC2 whole entry): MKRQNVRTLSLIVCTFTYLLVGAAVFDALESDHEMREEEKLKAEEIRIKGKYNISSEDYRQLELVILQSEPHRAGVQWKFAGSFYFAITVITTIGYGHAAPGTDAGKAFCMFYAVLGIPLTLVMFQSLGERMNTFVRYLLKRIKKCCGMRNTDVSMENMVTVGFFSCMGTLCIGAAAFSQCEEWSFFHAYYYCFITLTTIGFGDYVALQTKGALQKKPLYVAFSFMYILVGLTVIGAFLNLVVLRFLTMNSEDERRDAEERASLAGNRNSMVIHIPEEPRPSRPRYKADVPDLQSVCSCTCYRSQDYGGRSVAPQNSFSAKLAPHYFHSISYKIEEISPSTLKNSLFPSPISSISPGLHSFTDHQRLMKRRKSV
Method: as §1

Chain of recombinant TASK-1 (O14649 whole entry): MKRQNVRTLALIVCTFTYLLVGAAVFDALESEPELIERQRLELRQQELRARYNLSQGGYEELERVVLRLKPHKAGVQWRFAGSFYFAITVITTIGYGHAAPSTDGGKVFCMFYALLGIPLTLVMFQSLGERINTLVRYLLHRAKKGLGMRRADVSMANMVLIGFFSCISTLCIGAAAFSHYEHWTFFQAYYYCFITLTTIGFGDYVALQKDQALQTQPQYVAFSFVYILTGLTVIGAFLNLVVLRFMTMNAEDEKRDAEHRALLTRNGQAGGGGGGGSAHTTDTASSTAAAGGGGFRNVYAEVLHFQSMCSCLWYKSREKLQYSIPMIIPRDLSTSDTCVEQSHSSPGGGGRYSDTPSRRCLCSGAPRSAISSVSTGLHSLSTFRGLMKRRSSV

| Structure (SMILES) | IC50 (recombinant TASK-1) [µM] | IC50 (recombinant TASK-3) [µM] |
| --- | --- | --- |
| O=C(c1ccccc1F)N1C2CCC1CN(Cc1c(-c3ccc(Cl)cc3)nc3ccccn13)CC2 (racemic) [Example 69, [3-{[2-(4-chlorophenyl)imidazo[1,2-a]pyridin-3-yl]methyl}-3,9-diazabicyclo[4.2.1]non-9-yl](2-fluorophenyl)methanone] | 1.4 | 0.062 |
| COc1cccc(C(=O)N2C3CCC2CN(Cc2c(-c4ccc(Cl)cc4)nc4ccccn24)CC3)n1 (racemic) [Example 70, [3-{[2-(4-chlorophenyl)imidazo[1,2-a]pyridin-3-yl]methyl}-3,9-diazabicyclo[4.2.1]non-9-yl](6-methoxypyridin-2-yl)methanone] | 0.305 | 0.0047 |
| O=C(c1ccccc1F)N1C2CCN(Cc3c(-c4ccc(Cl)cc4)nc4ccccn34)CC1COC2 (racemic) [Example 71, (3-{[2-(4-chlorophenyl)imidazo[1,2-a]pyridin-3-yl]methyl}-8-oxa-3,10-diazabicyclo[4.3.1]dec-10-yl](2-fluorophenyl)methanone] | 0.74 | 0.031 |
| COc1cccc(C(=O)N2C3CCN(Cc4c(-c5ccc(Cl)cc5)nc5ccccn45)CC2COC3)n1 (racemic) [Example 72, [3-{[2-(4-chlorophenyl)imidazo[1,2-a]pyridin-3-yl]methyl}-8-oxa-3,10-diazabicyclo[4.3.1]dec-10-yl](6-methoxypyridin-2-yl)methanone] | 0.12 | 0.0051 |
| Cc1nonc1C(=O)N1C2CCN(Cc3c(-c4ccc(Cl)cc4)nc4ccccn34)CC1COC2 (racemic) [Example 73, [3-{[2-(4-chlorophenyl)imidazo[1,2-a]pyridin-3-yl]methyl}-8-oxa-3,10-diazabicyclo[4.3.1]dec-10-yl](4-methyl-1,2,5-oxadiazol-3-yl)methanone] | 0.099 | 0.005 |
| O=C(c1ccccc1F)N1C2CCN(Cc3c(-c4ccc(Cl)cc4)nc4ncccn34)CC1COC2 (racemic) [Example 74, [3-{[2-(4-chlorophenyl)imidazo[1,2-a]pyrimidin-3-yl]methyl}-8-oxa-3,10-diazabicyclo[4.3.1]dec-10-yl](2-fluorophenyl)methanone] | 5 | 0.2 |
| COc1cccc(C(=O)N2C3CCN(Cc4c(-c5ccc(Cl)cc5)nc5ncccn45)CC2COC3)n1 (racemic) [Example 75, [3-{[2-(4-chlorophenyl)imidazo[1,2-a]pyrimidin-3-yl]methyl}-8-oxa-3,10-diazabicyclo[4.3.1]dec-10-yl](6-methoxypyridin-2-yl)methanone] | 2.3 | 0.077 |
| Cc1nonc1C(=O)N1C2CCN(Cc3c(-c4ccc(Cl)cc4)nc4ncccn34)CC1COC2 (racemic) [Example 76, [3-{[2-(4-chlorophenyl)imidazo[1,2-a]pyrimidin-3-yl]methyl}-8-oxa-3,10-diazabicyclo[4.3.1]dec-10-yl](4-methyl-1,2,5-oxadiazol-3-yl)methanone] | 1.4 | 0.066 |
| Nc1nonc1C(=O)N1C2CCN(Cc3c(-c4ccc(Cl)cc4)nc4ncccn34)CC1COC2 (racemic) [Example 77, (4-amino-1,2,5-oxadiazo1-3-yl)[3-{[2-(4-chlorophenyl)imidazo[1,2-a]pyrimidin-3-yl]methyl}-8-oxa-3,10-diazabicyclo[4.3.1]dec-10-yl]methanone] | 3.3 | 0.27 |
| COc1ccc(F)c(C(=O)N2C3CCN(Cc4c(-c5ccc(Cl)cc5)nc5ccccn45)CC2COC3)n1 (racemic) [Example 92, [3-{[2-(4-chlorophenyl)imidazo[1,2-a]pyridin-3-yl]methyl}-8-oxa-3,10-diazabicyclo[4.3.1]dec-10-yl](3-fluoro-6-methoxypyridin-2-yl)methanone] | 0.085 | 0.0025 |
| COc1ccc(Cl)c(C(=O)N2C3CCC2CN(Cc2c(-c4ccc(Cl)cc4)nc4ncccn24)CC3)n1 (racemic) [Example 99, (3-chloro-6-methoxypyridin-2-yl)(3-{[2-(4-chlorophenyl)imidazo[1,2-a]pyrimidin-3-yl]methyl}-3,9-diazabicyclo[4.2.1]non-9-yl)methanone] | 0.29 | 0.034 |
| COc1ccc(Cl)c(C(=O)N2C3CCC2CN(Cc2c(-c4ccc(Cl)cn4)nc4ccccn24)CC3)n1 (racemic) [Example 100, (3-chloro-6-methoxypyridin-2-yl)(3-{[2-(5-chloropyridin-2-yl)imidazo[1,2-a]pyridin-3-yl]methyl}-3,9-diazabicyclo[4.2.1]non-9-yl)methanone] | 0.37 | 0.042 |
| COc1ccc(F)c(C(=O)N2C3CCC2CN(Cc2c(-c4ccc(Cl)cn4)nc4ccccn24)CC3)n1 (single isomer, unassigned) [Example 16, [3-{[2-(5-Chloropyridin-2-yl)imidazo[1,2-a]pyridin-3-yl]methyl}-3,9-diazabicyclo[4.2.1]non-9-yl](3-fluoro-6-methoxypyridin-2-yl)methanone] | 1.7 | 0.065 |
| COc1ccc(F)c(C(=O)N2CCC3CCC2CN3Cc2c(-c3ccc(Cl)cc3)nc3ncccn23)n1 (single isomer, unassigned) [Example 17, [6-{[2-(4-Chlorophenyl)imidazo[1,2-a]pyrimidin-3-yl]methyl}-2,6-diazabicyclo[3.2.2]non-2-yl](3-fluoro-6-methoxypyridin-2-yl)methanone] | 3.3 | 0.015 |
| COc1ccc(F)c(C(=O)N2C3CCC2CN(Cc2c(-c4ccc(Cl)cc4)nc4ccccn24)CC3)n1 (single isomer, unassigned) [Example 78, [3-{[2-(4-chlorophenyl)imidazo[1,2-a]pyridin-3-yl]methyl}-3,9-diazabicyclo[4.2.1]non-9-yl](3-fluoro-6-methoxypyridin-2-yl)methanone] | 0.22 | 0.005 |
| COc1ccc(F)c(C(=O)N2C3CCC2CN(Cc2c(-c4ccc(Cl)cc4)nc4ccccn24)CC3)n1 (single isomer, unassigned) [Example 79, [3-{[2-(4-chlorophenyl)imidazo[1,2-a]pyridin-3-yl]methyl}-3,9-diazabicyclo[4.2.1]non-9-yl](3-fluoro-6-methoxypyridin-2-yl)methanone] | 0.29 | 0.011 |
| O=C(c1ccccc1F)N1C2CCC1CN(Cc1c(-c3ccc(Cl)cc3)nc3ncccn13)CC2 (single isomer, unassigned) [Example 80] | 4.5 | 0.093 |
| COc1ccc(F)c(C(=O)N2C3CCC2CN(Cc2c(-c4ccc(Cl)cc4)nc4ncccn24)CC3)n1 (single isomer, unassigned) [Example 82, [3-{[2-(4-chlorophenyl)imidazo[1,2-a]pyrimidin-3-yl]methyl}-3,9-diazabicyclo[4.2.1]non-9-yl](3-fluoro-6-methoxypyridin-2-yl)methanone] | 0.03 | 0.0014 |
| COc1ccc(F)c(C(=O)N2C3CCC2CN(Cc2c(-c4ccc(Cl)cc4)nc4ncccn24)CC3)n1 (single isomer, unassigned) [Example 83, [3-{[2-(4-chlorophenyl)imidazo[1,2-a]pyrimidin-3-yl]methyl}-3,9-diazabicyclo[4.2.1]non-9-yl](3-fluoro-6-methoxypyridin-2-yl)methanone] | 0.41 | 0.017 |
| COc1cccc(C(=O)N2C3CCC2CN(Cc2c(-c4ccc(Cl)cn4)nc4ccccn24)CC3)n1 (single isomer, unassigned) [Example 84, [3-{[2-(5-chloropyridin-2-yl)imidazo[1,2-a]pyridin-3-yl]methyl}-3,9-diazabicyclo[4.2.1]non-9-yl](6-methoxypyridin-2-yl)methanone] | 0.35 | 0.025 |
| COc1cccc(C(=O)N2C3CCC2CN(Cc2c(-c4ccc(Cl)cn4)nc4ccccn24)CC3)n1 (single isomer, unassigned) [Example 85, [3-{[2-(5-chloropyridin-2-yl)imidazo[1,2-a]pyridin-3-yl]methyl}-3,9-diazabicyclo[4.2.1]non-9-yl](6-methoxypyridin-2-yl)methanone] | 6.3 | 0.37 |
| COc1cccc(C(=O)N2C3CCC2CN(Cc2c(-c4ccc(Cl)cc4)nc4ncccn24)CC3)n1 (single isomer, unassigned) [Example 86, [3-{[2-(4-chlorophenyl)imidazo[1,2-a]pyrimidin-3-yl]methyl}-3,9-diazabicyclo[4.2.1]non-9-yl](6-methoxypyridin-2-yl)methanone] | 0.34 | 0.028 |
| COc1cccc(C(=O)N2C3CCC2CN(Cc2c(-c4ccc(Cl)cc4)nc4ncccn24)CC3)n1 (single isomer, unassigned) [Example 87, [3-{[2-(4-chlorophenyl)imidazo[1,2-a]pyrimidin-3-yl]methyl}-3,9-diazabicyclo[4.2.1]non-9-yl](6-methoxypyridin-2-yl)methanone] | 1.6 | 0.21 |
| O=C(c1ccccc1F)N1C2CCC1CN(Cc1c(-c3ccc(Cl)cc3)nc3ccccn13)CC2 (single isomer, unassigned) [Example 88, [3-{[2-(4-Chlorophenyl)imidazo[1,2-a]pyridin-3-yl]methyl}-3,9-diazabicyclo[4.2.1]non-9-yl](2-fluorophenyl)methanone] | 0.091 | 0.0016 |
| O=C(c1ccccc1F)N1C2CCC1CN(Cc1c(-c3ccc(Cl)cc3)nc3ccccn13)CC2 (single isomer, unassigned) [Example 89, [3-{[2-(4-Chlorophenyl)imidazo[1,2-a]pyridin-3-yl]methyl}-3,9-diazabicyclo[4.2.1]non-9-yl](2-fluorophenyl)methanone] | 0.31 | 0.019 |

Source: US11208422B2, “Substituted bridged diazepane derivatives and use thereof as TASK-1 and TASK-3 inhibitors” (Bayer Pharma Aktiengesellschaft, priority 2017, dated 2021)
